Measurements published in ChEMBL document CHEMBL1141517 (Bioorg Med Chem Lett, 2008).

Legend:
[1] = Inhibition of yeast Fba; design: species or system Saccharomyces cerevisiae
[2] = Inhibition of rabbit muscle Fba; design: species or system Oryctolagus cuniculus
[3] = Inhibition of Helicobacter pyroli recombinant Fba expressed in Escherichia coli JM 109; design: species or system Helicobacter pylori
Saccharomyces cerevisiae = test: Ratio of Km of fructose bis-phosphate for yeast Fba to Ki of compound for yeast Fba
Oryctolagus cuniculus = species on record: Oryctolagus cuniculus; test: Ratio of Km of fructose bis-phosphate for rabbit Fba to Ki of compound for rabbit Fba
Helicobacter pylori = test: Ratio of Km of fructose bis-phosphate for Helicobacter pyroli recombinant Fba to Ki of compound for Helicobacter pyroli recombinant Fba

| SMILES | Ki [1] [µM] | Ki [2] [µM] | Ki [3] [µM] | Ratio (Saccharomyces cerevisiae) | Ratio (Oryctolagus cuniculus) | Ratio (Helicobacter pylori) |
| --- | --- | --- | --- | --- | --- | --- |
| O=P(O)(O)OC[C@@H](O)[C@@H](O)[C@H](O)[C@@H](O)COP(=O)(O)O | 0.06 | 100 | 0.17 | 3.33 | 0.2 | 0.12 |
| O=P(O)(O)OC[C@@H](O)[C@@H](O)[C@H](O)[C@H](O)COP(=O)(O)O | 0.4 | 7.3 | 0.073 | 0.5 | 2.74 | 0.27 |
